One compound from patent publication US20100075907A1, “NEUROMEDIN U RECEPTOR AGONISTS AND USES THEREOF” (priority 2006, published 2010) can be followed below.

Non-standard residues stand in square brackets, D forms with d. Residues, ends and D or L forms follow the SMILES beside them. dNle = CCCC[C@@H](N)C(=O)O

The experiment deals with T1, hNMUR1 (Homo sapiens, UniProt Q9HB89).
T1 sequence (Q9HB89 1-426): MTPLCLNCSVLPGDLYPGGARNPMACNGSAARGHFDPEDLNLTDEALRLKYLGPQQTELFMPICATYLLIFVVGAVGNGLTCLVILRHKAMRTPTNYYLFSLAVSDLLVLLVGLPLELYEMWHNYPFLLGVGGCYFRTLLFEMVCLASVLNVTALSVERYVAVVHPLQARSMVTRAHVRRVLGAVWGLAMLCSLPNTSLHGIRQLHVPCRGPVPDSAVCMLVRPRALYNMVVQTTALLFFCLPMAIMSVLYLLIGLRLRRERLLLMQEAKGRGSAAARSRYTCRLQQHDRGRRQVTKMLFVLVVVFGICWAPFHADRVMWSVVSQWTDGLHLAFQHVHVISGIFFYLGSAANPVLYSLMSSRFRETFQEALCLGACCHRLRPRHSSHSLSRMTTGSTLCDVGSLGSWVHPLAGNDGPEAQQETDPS
Briefly: 125I-hNMU-25 binding assay, human NMUR1 membranes. On the set-up: expressed in transfected cells; host or cells: HEK-293 FLP-In cells (pcDNA5); HEK-293/aeq17 lines (pIRES-puro) were also made; % inhibition of NMU-25 binding / % Activity: concentration or dose not given beside the values. Particulars: Table 9, HEK-hR1, binding. As to the method: Confluent cell monolayers expressing NMU receptors (the HEK cells described above) were harvested with phosphate buffered saline, collected by centrifugation, and resuspended in membrane buffer (50 mM TrisCl pH 7.4, 5 mM MgCl2, 1× Protease Inhibitor Cocktail, 10 μM phosphoramidon). After the cell pellet was homogenized, the solution was centrifuged at 18,000 rpm for 20 minutes at 4° C. The pellet was resuspended in membrane buffer to yield a final concentration of 0.5-5 μg/μL of membrane and stored at −80° C.
Experiments were performed in assay buffer (25 mM TrisCl, pH 7.4, 10 mM MgCl2, 2 mM EDTA, 1× Protease Inhibitor Cocktail, 100 μg/mL Bacitricin, 10 μM phosphoramidon) in 200 μL volumes in a 96-well format using 2-5 μg of membrane and 0.1 nM ^125I-hNMU-25 (about 12,000 cpm/well). For non-specific binding, 1 μM hNMU-25 was added. About 5 μL of peptides were added to measure antagonist activity, and the entire reaction was incubated at room temperature with shaking for 80 minutes. The reaction was terminated by rapid filtration through 0.3% poly-ethylenimine presoaked Millipore 96-well filter plates and washed with ice-cold buffer (5 mM TrisCl pH 7.4, 10 mM MgCl2, 2.5 mM EDTA, 0.04% Triton X-100). Plates were air-dried overnight at room temperature and recovered radioactivity was determined by standard scintillation counting. IC50 values were determined using GraphPad Prism software.
Concentration-response curves and radioligand-binding data were fitted using Prism (GraphPad Software). Results are summarized below in Tables 8 and 9.

On to `CCCC[C@@H](NC(=O)[C@H](CCCNC(=N)N)NC(=O)[C@H](C)NC(=O)[C@H](CCCNC(=N)N)NC(=O)[C@H](Cc1ccccc1)NC(=O)[C@H](CC(C)C)NC(=O)[C@H](Cc1ccccc1)NC(=O)[C@@H](N)Cc1c[nH]c2ccccc12)C(N)=O` [Agonist K, WFLFRAR-(D-Nle)-CONH2] (H-WFLFRAR[dNle]-NH2), for which the “% Activity” value turned out to be 25% and the IC50 (as a rule, the concentration needed to halve the response being measured) was over 1000 nM.
